Data on four compounds can be found in patent publication US7482308B2, “Difluoromethanesulfonyl anilide derivatives useful as herbicides” (Bayer CropScience AG, priority 2004, dated 2009).

Assay type in all cases: in vivo
For data set [1], the system named is Scirpus juncoides Roxburgh. As to the kind of experiment: Test for herbicidal effect against paddy field weeds (Test Example 1). Conditions: examined 3 weeks after treatment. How it is done:
(§1) Preparation of Formulation of the Active Compound
(§2) • Carrier: DMF 5 parts by weight • Emulsifier: Benzyloxy polyglycol ether 1 part by weight
(§3) A formulation of an active compound is obtained as an emulsifiable concentrate by mixing 1 part by weight of the active compound with the above-mentioned amount of the carrier and emulsifier. A prescribed amount of the formulation is diluted with water.
(§4) In a green house seeds or tubers of Scirpus juncoides Roxburgh, Monochoria vaginalis Presi, annual broad-leaved weeds (Lindemia procumbens Philcox, Rotala indica Koehne, Elatine triandra Schk, Ammannia multiflora Roxb., etc.), Cyperus serotinus Rottboel were inoculated in a 500 cm^2 pot filled with paddy field soil. Then water was poured to a depth of about 2-3 cm. Five days and 13 days after inoculation, a prescribed, diluted solution of the formulation of each active compound, prepared according to the aforementioned preparation method, was applied to the surface of water. After the treatment the water depth of 3 cm was maintained and the herbicidal effect was examined after 3 weeks from the treatment.
(§5) The herbicidal effect was rated 100% in the case of complete death and as 0% in the case of no herbicidal effect. In case of showing higher than 80% herbicidal effect, it is evaluated as practical as herbicide.

Data set [2] has as its system annual broad-leaved weeds. The data set is described as above. The following applies: examined 3 weeks after treatment. The procedure:
as §1, §2, §3, §4, §5

For data set [3], the system named is Cyperus serotinus Rottboel. The data set is described as above. Conditions: examined 3 weeks after treatment. The procedure: as §1, §2, §3, §4, §5
The subject of data set [4] is Monochoria vaginalis Presi. The data set is described as above. The following applies: examined 3 weeks after treatment. How it is done:
as §1, §2, §3, §4, §5

Data set [5] relates to sulfonylurea resistant Lindernia procumbens Philcox (collected in Kazo area, Saitama Pref.). In words: Test for herbicidal effect against sulfonylurea resistant weeds (Test Example 3). The following applies: applied at beginning of emergence, examined 3 weeks after treatment. The source says: (§6) In a green house seeds of Scirpus juncoides Roxburgh (collected in Iwamizawa area, Hokkaido), Lindernia procumbens Philcox (collected in Kazo area, Saitama Pref.), Lindernia procumbens Philcox (collected in Higashi-Hiroshima area, Hiroshima Pref.), Elatine triandra Schk (collected in Kazo area, Saitama Pref.), all of which were confirmed as sulfonylurea resistant, were inoculated in a 20 cm^2 cup filled with paddy field soil. Then water was poured to a depth of about 2 to 3 cm. At the beginning of emergence of each weed, a prescribed, diluted solution of the formulation of each active compound prepared in the same manner as the above-mentioned Test Example 1 was applied to the surface of water. After the treatment the water depth of 3 cm was maintained and the herbicidal effect was examined after 3 weeks from the treatment. The evaluation of the herbicidal effect was conducted in the same manner as the above-mentioned Test Example 1. In case of showing higher than 80% herbicidal effect, it is evaluated as practical as herbicide. In consideration of the possibility that the biological properties including herbicide resistance of the plants grown in different areas might be different, sulfonylurea resistant Lindernia procumbens Philcox collected in two different areas were used in the present tests. The study results with the compounds No. 1, 3, 11 and 17 and the comparative compound No. C-1 as specific examples are shown in the following Table 6.

The subject of data set [6] is sulfonylurea resistant Scirpus juncoides Roxburgh (collected in Iwamizawa area, Hokkaido). The description is as above. The following applies: applied at beginning of emergence, examined 3 weeks after treatment.
Description: as §6

The subject of data set [7] is transplanted rice (var. Nipponbare). In words: Test for phytotoxicity to transplanted rice (Test Example 4). The following applies: 60 g ai/ha, application 5 days after transplanting, examined 2 weeks after treatment; for phytotoxicity to transplanted rice depth 0 cm: planting depth 0 cm; for phytotoxicity to transplanted rice depth 0.5 cm: planting depth 0.5 cm; for phytotoxicity to transplanted rice depth 2 cm: planting depth 2 cm. The procedure: The phytotoxicity to transplanted rice was evaluated under the conditions with more shallow planting depths than usual depth of 2 cm, simulating the severe condition for herbicides to cause rice injury in the paddy. In a greenhouse 2 to 2.5 leaf-stage of rice (var. Nipponbare) was transplanted at three different depths, in a 1000 cm^2 pot filled with paddy field soil. Then water was poured to a depth of about 2 to about 3 cm. Five days after transplanting, a prescribed, diluted solution of the formulation of each active compound, prepared in the same manner as the above-mentioned Test Example 1, was applied to the surface of water. After the treatment the water depth of 3 cm was maintained and the rice injury was examined after 2 weeks from the treatment. The rice injury was rated 100% in the case of complete death and as 0% in the case of no injury. In case of showing less than 20% injury, it is evaluated as practical as rice herbicide.

The subject of data set [8] is Scirpus juncoides Roxburgh. In words: Test for residual effectiveness against paddy field weeds (Test Example 2). The following applies: 60 g ai/ha; period of maintaining herbicidal effect of higher than 80%. The source says:
(§7) In a green house a 1000 cm^2 pot was filled with paddy field soil and water was poured to a depth of about 2 to 3 cm. A prescribed, diluted solution of the above-mentioned Test Example 1, was applied to the surface of water. After the prescribed time after the treatment (just after treatment, 1 week, 2 weeks, 3 weeks, 4 weeks, 5 weeks, 6 weeks and 7 weeks after treatment), seeds or tubers of the weeds to be tested Scirpus juncoides Roxburgh, Monochoria vaginalis Presi, annual broad-leaved weeds (Lindernia procumbens Philcox, Rotala indica Koehne, Elatine triandra Schk, Ammannia multiflora Roxb., etc.), Cyperus serotinus Rottboel and Sagittaria pygmaea Miq. were inoculated. Three weeks after the inoculation each herbicidal effect was examined.
(§8) The evaluation of the residual effectiveness was shown as the period (number of weeks) of maintaining herbicidal effect of higher than 80%, after the evaluation of herbicidal effect had been conducted in the similar manner as the above-mentioned Test Example 1.

Data set [9] has as its system annual broad-leaved weeds. The data set is described as above. Conditions: 60 g ai/ha; period of maintaining herbicidal effect of higher than 80%.
Description: as §7, §8

For the next data set, the system named is Sagittaria pygmaea Miq. Described as above. The following applies: 60 g ai/ha; period of maintaining herbicidal effect of higher than 80%.
Description: as §7, §8

The subject of data set [10] is Monochoria vaginalis Presi. Described as above. The following applies: 60 g ai/ha; period of maintaining herbicidal effect of higher than 80%.
Description: as §7, §8

Data set [11] has as its system Scirpus juncoides Roxburgh. In words: Herbicidal effect against paddy field weeds, spray at two leaf-stage of rice (Test Example 5). Conditions: 50 g ai/ha, evaluated 3 weeks after treatment. The source says:
(§9) In a greenhouse seeds of Scirpus juncoides Roxburgh, Monochoria vaginalis Presi, Cyperus difformis L., annual broad-leaved weeds (Lindernia procumbens Philcox, Rotala indica Koehne, Elatine triandra Schk, Ammannia multiflora Roxb.) and rice (var.: Nipponbare and RD-23) were inoculated in a 500 cm^2 pot filled with paddy field soil. Then water was poured to a depth of about 0 to about 0.5 cm, to be a wet condition. At two leaf-stage of rice, a prescribed, diluted solution of the formulation of each active compound, prepared in the same manner as the above-mentioned Test Example 1, was sprayed over the pots with plants. At 2 days after the treatment, the water depth of 3 cm was maintained and the herbicidal effect and rice injury was evaluated at 3 weeks and 2 weeks after the treatment, respectively.
(§10) The herbicidal effect and rice injury were rated 100% in the case of complete death and as 0% in the case of no effect or injury. In case of showing higher than 80% herbicidal effect and less than 20% injury, it is evaluated as practical as rice herbicide.

Data set [12] relates to annual broad-leaved weeds. The data set is described as above. Conditions: 50 g ai/ha, evaluated 3 weeks after treatment.
Description: as §9, §10

The subject of data set [13] is Monochoria vaginalis Presi. The description is as above. The following applies: 50 g ai/ha, evaluated 3 weeks after treatment.
Description: as §9, §10

The test system of another data set is Cyperus difformis L. The description is as above. The following applies: 50 g ai/ha, evaluated 3 weeks after treatment.
Description: as §9, §10

Data set [14] concerns direct-seedling rice var. Nipponbare. In words: Test for phytotoxicity to direct-seedling rice (Test Example 5). The following applies: 50 g ai/ha; spray at two leaf-stage of rice; evaluated 2 weeks after treatment.
Description: as §9, §10

The subject of data set [15] is direct-seedling rice var. RD-23. The data set is described as above. Conditions: 50 g ai/ha; spray at two leaf-stage of rice; evaluated 2 weeks after treatment.
Description: as §9, §10

Setting [16] is: 30 g ai/ha, application 5 days after inoculation.
[17] abbreviates: 30 g ai/ha, application 13 days after inoculation.
Where [18] appears, read: 60 g ai/ha, application 5 days after inoculation.
Where [19] appears, read: 60 g ai/ha, application 13 days after inoculation.

On to `COc1cc(OC)nc(C(=O)c2cccc(F)c2NS(=O)(=O)C(F)F)n1` [Compound 17, 2-fluoro-6-[(4,6-dimethoxypyrimidin-2-yl)carbonyl]-N-difluoromethanesulfonanilide], for which the “herbicidal effect Scirpus juncoides” value in data set [1] (setting [16]) and in [1] (setting [17]) was 100% throughout. Besides, the “herbicidal effect broad-leaved weeds” value in data set [2] (setting [16]) and in data set [2] (setting [17]) was 100% throughout. Moreover, the “herbicidal effect Cyperus serotinus” value in [3] (setting [16]) and in data set [3] (setting [17]) was 100% throughout. Further, the “herbicidal effect Monochoria vaginalis” value in data set [4] (setting [16]) and in [4] (setting [17]) was 100% throughout. Besides, the “herbicidal effect against sulfonylurea resistant weeds Lindernia procumbens (collected in Kazo area, Saitama Pref.)” value in [5] (30 g ai/ha) is on record as 95%; in [5] (60 g ai/ha), 100%. For the same compound, the “herbicidal effect against sulfonylurea resistant weeds Scirpus juncoides (collected in Iwamizawa area, Hokkaido)” value in [6] (30 g ai/ha) and in data set [6] (60 g ai/ha) was 100% each time.

Take `COCc1cccc(C(O)c2nc(OC)cc(OC)n2)c1NS(=O)(=O)C(F)F` (centres unmarked) [Compound C-2, reference compound]: in [7], the “phytotoxicity to transplanted rice depth 0 cm” value was determined as 40%, the “phytotoxicity to transplanted rice depth 0.5 cm” value amounted to 30% and the “phytotoxicity to transplanted rice depth 2 cm” value was 30%. Besides, the “period showing sufficient residual herbicidal effectiveness Scirpus juncoides” value in data set [8] was found to be 2 week. In addition, the “period showing sufficient residual herbicidal effectiveness broad-leaved weeds” value in data set [9] is recorded as 2 week. The “period showing sufficient residual herbicidal effectiveness Sagittaria pygmaea” value in the data set with Sagittaria pygmaea Miq. stood at 3 week. Further, in data set [10], the “period showing sufficient residual herbicidal effectiveness Monochoria vaginalis” value is 2 week. The “herbicidal effect Scirpus juncoides” value in data set [11] was 90%. Besides, the “herbicidal effect broad-leaved weeds” value in [12] is listed as 100%. In [13], the “herbicidal effect Monochoria vaginalis” value is 100%. For the same compound, the “herbicidal effect Cyperus difformis L.” value in the data set on Cyperus difformis L. worked out at 100%. Further, the “Phytotoxicity to direct-seedling rice Nipponbare” value in data set [14] was 50%. Further, the “Phytotoxicity to direct-seedling rice RD-23” value in data set [15] is 30%.

As to `COc1cc(OC)nc(C(O)c2cccc(Cl)c2NS(=O)(=O)C(F)F)n1` (centres unmarked) [Compound 3, 2-chloro-6-[(4,6-dimethoxypyrimidin-2-yl)hydroxymethyl]-N-difluoromethanesulfonanilide], the “herbicidal effect Scirpus juncoides” value in data set [1] (setting [16]), in [1] (setting [17]) and in data set [11] was 100% each time. Further, the “herbicidal effect broad-leaved weeds” value in [2] (setting [16]), in data set [2] (setting [17]) and in data set [12] was 100% in each case. The “herbicidal effect Cyperus serotinus” value in data set [3] (setting [16]) and in data set [3] (setting [17]) was 100% each time. The “herbicidal effect Monochoria vaginalis” value in data set [4] (setting [16]), in data set [4] (setting [17]) and in data set [13] was 100% in each case. Moreover, the “herbicidal effect against sulfonylurea resistant weeds Lindernia procumbens (collected in Kazo area, Saitama Pref.)” value in data set [5] (30 g ai/ha) and in data set [5] (60 g ai/ha) was 100% each time. Moreover, the “herbicidal effect against sulfonylurea resistant weeds Scirpus juncoides (collected in Iwamizawa area, Hokkaido)” value in [6] (30 g ai/ha) and in data set [6] (60 g ai/ha) was 100% each time. The “herbicidal effect Cyperus difformis L.” value in the data set on Cyperus difformis L. worked out at 100%. Further, the “Phytotoxicity to direct-seedling rice Nipponbare” value in data set [14] is listed as 20%. Besides, the “Phytotoxicity to direct-seedling rice RD-23” value in [15] amounted to 10%.

Take `COc1cc(OC)nc(Cc2cccc(Cl)c2NS(=O)(=O)C(F)F)n1` [Compound 11, 2-chloro-6-[(4,6-dimethoxypyrimidin-2-yl)methyl]-N-difluoromethanesulfonanilide]: in data set [7], the “phytotoxicity to transplanted rice depth 0 cm” value was 15%. In addition, the “phytotoxicity to transplanted rice depth 0.5 cm” value in [7] stood at 15%. In data set [7], the “phytotoxicity to transplanted rice depth 2 cm” value is listed as 10%. Besides, in [8], the “period showing sufficient residual herbicidal effectiveness Scirpus juncoides” value is 4 week. For the same compound, in [9], the “period showing sufficient residual herbicidal effectiveness broad-leaved weeds” value came to 4 week. For the same compound, the “period showing sufficient residual herbicidal effectiveness Sagittaria pygmaea” value with Sagittaria pygmaea Miq. is 4 week. Further, the “period showing sufficient residual herbicidal effectiveness Monochoria vaginalis” value in [10] was found to be 3 week. Further, the “herbicidal effect Scirpus juncoides” value in data set [1] (setting [18]) was 100%; in data set [1] (setting [19]), 100%; in [11], 90%. For the same compound, the “herbicidal effect broad-leaved weeds” value in [2] (setting [18]), in data set [2] (setting [19]) and in data set [12] was 100% each time. In addition, the “herbicidal effect Cyperus serotinus” value is on record as 100% in data set [3] (setting [18]) and 95% in data set [3] (setting [19]). The “herbicidal effect Monochoria vaginalis” value in data set [4] (setting [18]), in data set [4] (setting [19]) and in [13] was 100% throughout. In addition, the “herbicidal effect against sulfonylurea resistant weeds Lindernia procumbens (collected in Kazo area, Saitama Pref.)” value in data set [5] (30 g ai/ha) and in [5] (60 g ai/ha) was 100% throughout. Besides, the “herbicidal effect against sulfonylurea resistant weeds Scirpus juncoides (collected in Iwamizawa area, Hokkaido)” value in data set [6] (30 g ai/ha) and in [6] (60 g ai/ha) was 100% each time. Besides, the “herbicidal effect Cyperus difformis L.” value with Cyperus difformis L. is 100%. For the same compound, the “Phytotoxicity to direct-seedling rice Nipponbare” value in data set [14] is 10%. The “Phytotoxicity to direct-seedling rice RD-23” value in data set [15] amounted to 10%.
